According to patent US20150224164A1, “TREATMENT OF AUTISM SPECTRUM DISORDERS USING GLYCYL-L-2-METHYLPROLYL-L-GLUMATIC ACID” (Neuren Pharmaceuticals Limited, priority 2013, published 2015):
Where a SMILES comes first, the peptide text is derived from it.

What was measured:
[1] = system: ChAT-positive neurons in the striatum; experiment: ChAT immunohistochemistry in striatum of aging rats; type: in vivo, rat; details: single s.c. dose 0.012-12 mg/kg; 18-month old rats; 3 days after treatment
Description: Eighteen-month old male rats received one of five treatments. A control group was treated with vehicle (saline alone (n=4) and four groups were treated with a single dose of G-2-MePE. […] Rats were sacrificed with an overdose of pentobarbital 3 days after drug treatment. Brains were perfused with normal saline and 4% paraformaldehyde and fixed in perfusion fixative overnight. Brains were stored in 25% sucrose in 0.1M PBS (pH7.4) until the tissue sank. Frozen coronal sections of striatum were cut with a microtome and stored in 0.1% sodium azide in 0.1M PBS at 4° C. Immunoreactivity for choline acetyltransferase (ChAT) was established by staining using a free floating section method. Briefly, antibodies were diluted in 1% goat serum. The sections were incubated in 0.2% triton in 0.1M PBS/Triton™ at 4° C. overnight before Immunohistochemical staining. The sections were pre-treated with 1% H2O2 in 50% methanol for 20 min. The sections were then incubated with rabbit (Rb) anti-ChAT (1:5000) antibodies (the primary antibodies) in 4D on a shaker for two days. The sections were washed using PBS/Triton™ (15 minutes×3d) and then incubated with goat anti-rabbit biotinylated secondary antibodies (1:1000) at room temperature overnight. […] The size of the striatal region used for the count was measured using an image analyser. […] Data were analysed using a paired t-test and presented as mean+/−SEM.

[2] = system: GFAP-positive astrocytes; experiment: Astrocytosis, GFAP staining in aged brains; type: in vivo, rat; details: 18-month old rats; i.p.; 3 d; particularly 0.12 and 12 mg/kg; p<0.05
Description: To carry out these studies, tissues were fixed and embedded in paraffin and sections obtained using standard methods. Coronal sections (6 μm) containing the level of the hippocampus were cut and mounted on chrome-alum-coated slides for staining. The sections were deparaffinized in xylene, […] in a series of ethanol and incubated in 0.1 M phosphate buffered saline (PBS). Primary antibodies against glial fibrillary acidic protein (GFAP) and proliferating cell nuclear antigen (PCNA) were used to mark reactive glial cells and cells undergoing apoptosis and proliferation, respectively. For antigen unmasking (caspase-3 and PCNA staining), sections were heated in 10 mM sodium citrate buffer (pH 6.0) for 1 min at high power. All sections were pretreated with 1% H2O2 in 50% methanol for 30 min to quench the endogenous peroxidase activity. […] The number of PCNA positive cells was counted in the subventricular zone and the GFAP positive cells was scored in the cerebral cortex. We also evaluated effects of G-2-MePE on astrocytosis in the CA4 sub-region of the hippocampus in aged rats. […] GFAP-positive cells were counted using a computerised program (Discovery 1). G-2-MePE was administered intra-peritoneally and the numbers of GFAP-positive cells were assessed 3d after the injection. […]

[3] = system: MeCP2 knockout mice; experiment: Nocturnal locomotor activity (Example 10); type: in vivo, mouse; details: after 6 weeks; 20 mg/kg i.p. daily
Description: Spontaneous motor activity is measured by using an infrared beam-activated movement-monitoring chamber (Opto-Varimax-MiniA; Columbus Instruments, Columbus, Ohio). For each experiment, a mouse is placed in the chamber at least 3 h before recordings started. Movement is monitored during the normal 12-h dark cycle (7 p.m. to 7 a.m.). One dark cycle per animal per time point is collected.

[4] = system: neurons in the CA3 region of the hippocampus; experiment: Neuron soma size in hippocampus CA3 (Example 10); type: in vivo, mouse
Description: We also measure the effect of G-2-MePE treatment on neuron soma size in the hippocampus. Mice are treated with G-2-MePE as described above for locomotor activity.

[5] = system: fmr1 KO hippocampal neurons; experiment: Dendritic spine density in hippocampal primary cell cultures (microfluidic chamber, GFP); type: cell-based, mouse; details: 0.5 nM, n=3 independent experiments
Description: Hippocampal cell cultures were prepared from wild-type and fmr1 KO foetal mice (14-16 d of gestation). After 3d in vitro, green fluorescent protein (GFP) was used to monitor dendritic spine density during time-course of culture (Ethell and Yamaguchi, 1999; Ethell et al., 2001, Henkemeyer et al., 2003). Dendritic spines are usually formed between 7 and 14 days in vitro (DIV). By 14 DIV most dendritic protrusions are spines. We evaluated the effect of G-2-MePE, a positive control (the mGluR5 antagonist 2-methyl-6-(phenylethynyl)-pyridine or MPEP) and vehicle controls on dendritic spine density in fmr1 KO and WT hippocampal primary cell cultures. Fmr1 KO and wild-type cultures were treated at 17 DIV.
We used the compartmentalized culture system, a microfluidic chamber (see FIG. 31A) which opens the possibility for fast drug testing with the capacity to detect in vitro drug effects such as spine morphology, neurite outgrowth and synapse formation. The treated and untreated neurons in the compartmentalized chambers can be also being use for western blot analysis. The compartmentalised culture is a new approach to evaluate the effect of drugs on anterograde and retrograde transport of messengers and proteins relevant to FXS. Other new possibility that offers this approach its access into exclusive axon compartment, in this area immunodetection and treatments are also possible. […]

Structure (SMILES): C[C@@]1(C(=O)N[C@@H](CCC(=O)O)C(=O)O)CCCN1C(=O)CN [Example G-2-MePE, Glycyl-L-2-methylprolyl-L-glutamic acid] (HELM PEPTIDE1{G.[C[C@@]1(C(=O)[*:2])CCCN1[*:1]].E}$$$$V2.0)
- number of ChAT-immunopositive neurons [1]: increased
- number of reactive astrocytes (GFAP) in CA4 region of hippocampus [2]: reduced number of reactive astrocytes
- nocturnal locomotor activity levels [3]: elevates these levels
- average soma size ([4]; KO animals): increases average soma size
- soma size ([4]; wild type animals): little or no effect
- dendritic spine density (mean±SD) [5]: 0.33±0.07 spines per micrometer
